How the values were obtained:
[1] = target: Mer (Homo sapiens (Human), UniProt Q12866); assay: Human Mer kinase assay (33P radiometric, KinaseProfiler); format: biochemical; conditions: 10 μM ATP
Description: (§1) Kinase activity and compound inhibition were investigated using the ^33P-Phosphoryl transfer radiometric kinase assay, performed using the KinaseProfiler™ service of Eurofins Pharma Discovery Services UK Limited. Dose-response experiments were performed using nine compound concentrations in a 96-well microtiter plate. For each assay, all compounds were prepared to a 50× final assay concentration (50 μM) in 100% DMSO, then diluted in a half-log series, with the final top concentration at 1 μM. This working stock of the compound was added to the assay well as the first component in the reaction, followed by the remaining components as detailed in the following assay protocols below. The positive control wells (100% kinase activity) contain all components of the reaction including 2% DMSO (control for solvent effects), except the compound of interest. Blank wells contain all components of the reaction, with the reference inhibitor, staurosporine. This reference compound was used to abolish kinase activity and generated the 0% kinase activity base-line. IC50 values were calculated by nonlinear regression analysis using the sigmoidal dose-response (variable slope) curve fit on XLFit version 5.3 (ID Business Solutions).
Human Mer (residues R557-E882 with H628Q and R794A, 0.7 nM) was incubated with 8 mM MOPS pH 7.0, 0.2 mM EDTA, 30 mM NaCl, 250 μM GGMEDIYFEFMGGKKK (SEQ ID NO. 44), 10 mM magnesium acetate, and 10 μM [γ-^33P-ATP]. The reaction was initiated by the addition of the Mg/ATP mix. After incubation for 40 minutes at room temperature, the reaction was stopped by the addition of phosphoric acid to a concentration of 0.5%. A reaction aliquot of 10 μL was then spotted onto a P30 filtermat and washed four times for 4 minutes in 0.425% phosphoric acid and once in methanol prior to drying and scintillation counting. Incorporated ^33P was measured using the Wallac Microbeta scintillation counter (Perkin Elmer).

[2] = target: AXL (Homo sapiens (Human), UniProt P30530); assay: AXL autophosphorylation ELISA in A-172 cells; format: cell-based; conditions: cellular, Gas6-stimulated, phospho-AXL ELISA
AXL, sequence (P30530 26-894): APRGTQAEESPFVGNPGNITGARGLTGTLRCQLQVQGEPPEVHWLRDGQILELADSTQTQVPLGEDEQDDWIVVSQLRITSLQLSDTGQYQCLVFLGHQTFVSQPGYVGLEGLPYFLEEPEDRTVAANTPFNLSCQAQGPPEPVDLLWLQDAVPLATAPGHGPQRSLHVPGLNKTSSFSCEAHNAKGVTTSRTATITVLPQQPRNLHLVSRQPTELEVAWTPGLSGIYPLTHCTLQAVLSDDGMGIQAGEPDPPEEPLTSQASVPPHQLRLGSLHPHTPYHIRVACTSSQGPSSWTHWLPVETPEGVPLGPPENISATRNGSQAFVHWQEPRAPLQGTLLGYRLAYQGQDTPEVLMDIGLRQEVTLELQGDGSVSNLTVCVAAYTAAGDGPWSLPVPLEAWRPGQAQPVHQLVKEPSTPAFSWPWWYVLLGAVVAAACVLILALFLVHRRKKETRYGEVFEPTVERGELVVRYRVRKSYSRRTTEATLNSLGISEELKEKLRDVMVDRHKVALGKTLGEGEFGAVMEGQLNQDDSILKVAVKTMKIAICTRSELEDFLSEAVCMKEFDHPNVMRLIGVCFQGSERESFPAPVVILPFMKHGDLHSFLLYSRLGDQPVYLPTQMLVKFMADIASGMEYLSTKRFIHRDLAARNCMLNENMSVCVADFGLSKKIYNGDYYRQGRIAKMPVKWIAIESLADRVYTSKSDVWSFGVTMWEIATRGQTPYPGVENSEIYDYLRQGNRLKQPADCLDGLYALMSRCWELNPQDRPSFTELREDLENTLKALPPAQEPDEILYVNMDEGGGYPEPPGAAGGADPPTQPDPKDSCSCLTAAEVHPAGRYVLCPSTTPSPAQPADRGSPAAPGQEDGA
How it was run: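 A-172 glioblastoma cells, serum-starved 24 h, took compounds for 1 h (8-point curve, 0.3% DMSO) before 15 min stimulation with 1 μg/mL recombinant human Gas6. Lysate phospho-AXL measured by ELISA against a phospho-AXL standard, normalized to DMSO (100%) and reference inhibitor (0%); IC50 from 4-parameter logistic fit.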

[3] = target: T1, Met (Homo sapiens (Human), UniProt P08581); assay: Human Met kinase assay (33P radiometric, KinaseProfiler); format: biochemical; conditions: 10 μM ATP, read-out: c-Met IC50
Description: as §1
Human Met (residues R974-S1390 with A1209G and V1290L, 3.4 nM) was incubated with 8 mM MOPS pH 7.0, 0.2 mM EDTA, 250 μM KKKGQEEEYVFIE (SEQ ID NO. 45), 1 mM sodium orthovanadate, 5 mM […], 10 mM magnesium acetate, and 10 μM [γ-33P-ATP]. The reaction was initiated by the addition of the Mg/ATP mix. After incubation for 40 minutes at room temperature, the reaction was stopped by the addition of phosphoric acid to a concentration of 0.5%. A reaction aliquot of 10 μL was then spotted onto a P30 filtermat and washed four times for 4 minutes in 0.425% phosphoric acid and once in methanol prior to drying and scintillation counting. Incorporated 33P was measured using the Wallac Microbeta scintillation counter (Perkin Elmer).

[4] = target: T1, Met; assay: Met autophosphorylation ELISA in PC-3 cells; format: cell-based; conditions: cellular, HGF-stimulated, phospho-Met ELISA, read-out: c-Met IC50
How it was run: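 PC-3 cells serum-starved 3 h were treated 1 h with an 8-point compound series (0.3% DMSO), then stimulated 10 min with 100 ng/mL human HGF. Phospho-Met (panTyr) in lysates was measured by sandwich ELISA against DMSO (100%) and reference-inhibitor (0%) controls, and IC50 came from a 4-parameter logistic fit.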
Target sequence in this assay (P08581 25-1390): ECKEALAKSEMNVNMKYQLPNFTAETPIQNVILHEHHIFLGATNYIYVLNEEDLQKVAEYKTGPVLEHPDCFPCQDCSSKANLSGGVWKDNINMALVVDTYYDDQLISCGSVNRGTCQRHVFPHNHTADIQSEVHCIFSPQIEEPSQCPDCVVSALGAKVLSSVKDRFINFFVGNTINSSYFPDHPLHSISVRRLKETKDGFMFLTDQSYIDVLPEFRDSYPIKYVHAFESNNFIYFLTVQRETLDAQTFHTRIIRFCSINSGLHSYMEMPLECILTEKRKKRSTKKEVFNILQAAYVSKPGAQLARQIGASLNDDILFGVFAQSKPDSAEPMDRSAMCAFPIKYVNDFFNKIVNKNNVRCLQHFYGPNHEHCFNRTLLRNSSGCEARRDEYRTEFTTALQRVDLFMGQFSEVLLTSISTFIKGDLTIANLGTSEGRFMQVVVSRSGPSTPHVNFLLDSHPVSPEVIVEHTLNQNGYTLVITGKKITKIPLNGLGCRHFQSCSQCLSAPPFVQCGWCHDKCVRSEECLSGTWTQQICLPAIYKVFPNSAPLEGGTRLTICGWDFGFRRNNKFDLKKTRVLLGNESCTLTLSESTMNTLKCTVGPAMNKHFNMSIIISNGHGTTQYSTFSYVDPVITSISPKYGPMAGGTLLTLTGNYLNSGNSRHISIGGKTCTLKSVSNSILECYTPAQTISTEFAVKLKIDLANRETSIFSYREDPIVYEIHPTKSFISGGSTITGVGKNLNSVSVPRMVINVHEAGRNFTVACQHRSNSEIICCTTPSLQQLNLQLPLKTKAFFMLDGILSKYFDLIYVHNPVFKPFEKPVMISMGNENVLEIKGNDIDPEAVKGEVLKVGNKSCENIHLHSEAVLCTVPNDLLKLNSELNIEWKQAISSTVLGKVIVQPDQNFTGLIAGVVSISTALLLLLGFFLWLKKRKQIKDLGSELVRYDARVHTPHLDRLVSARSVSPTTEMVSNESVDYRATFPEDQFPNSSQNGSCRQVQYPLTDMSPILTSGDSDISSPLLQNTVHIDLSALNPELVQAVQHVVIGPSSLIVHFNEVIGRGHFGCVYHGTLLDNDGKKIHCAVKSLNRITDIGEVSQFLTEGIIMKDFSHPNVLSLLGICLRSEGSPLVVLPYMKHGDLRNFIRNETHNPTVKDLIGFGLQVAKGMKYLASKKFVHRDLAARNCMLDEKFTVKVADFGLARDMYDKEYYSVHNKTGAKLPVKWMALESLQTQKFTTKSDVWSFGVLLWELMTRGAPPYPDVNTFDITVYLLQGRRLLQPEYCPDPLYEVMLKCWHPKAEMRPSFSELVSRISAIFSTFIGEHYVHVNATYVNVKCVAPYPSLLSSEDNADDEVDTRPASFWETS

Mer, sequence (Q12866 557-882): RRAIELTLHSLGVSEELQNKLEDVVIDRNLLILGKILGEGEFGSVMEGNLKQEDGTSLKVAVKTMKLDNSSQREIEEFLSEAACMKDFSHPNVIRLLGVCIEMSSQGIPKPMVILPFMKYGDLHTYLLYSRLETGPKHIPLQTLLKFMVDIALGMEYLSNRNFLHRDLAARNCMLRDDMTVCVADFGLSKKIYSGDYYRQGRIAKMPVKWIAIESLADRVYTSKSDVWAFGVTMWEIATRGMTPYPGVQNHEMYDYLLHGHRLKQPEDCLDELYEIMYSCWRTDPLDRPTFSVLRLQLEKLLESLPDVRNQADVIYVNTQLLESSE

| SMILES | IC50 [1] | IC50 [2] | IC50 [3] | IC50 [4] |
| --- | --- | --- | --- | --- |
| CNC(=O)c1cc2c(Oc3ccc(NC(=O)C4(C(=O)Nc5ccc(F)cc5)CC4)cn3)ccnc2cc1OC [Compound 17, 1-N-(4-Fluorophenyl)-1-N′-[6-[7-methoxy-6-(methylcarbamoyl)quinolin-4-yl]oxypyridin-3-yl]cyclopropane-1,1-dicarboxamide] | 10 to 100 nM | 10 to 100 nM | 10 to 100 nM | 100 to 300 nM |
| COC(=O)c1cc2c(Oc3ncc(NC(=O)C4(C(=O)Nc5ccc(F)cc5)CC4)cc3Cl)ccnc2cc1OC [Compound 11, Methyl 4-[3-chloro-5-[[1-[(4-fluorophenyl)carbamoyl]cyclopropanecarbonyl]-amino]pyridin-2-yl]oxy-7-methoxyquinoline-6-carboxylate] | ≤ 10 nM | 10 to 100 nM | ≤ 10 nM | 10 to 100 nM |
| COc1cc2nccc(Oc3ncc(NC(=O)C4(C(=O)Nc5ccc(F)cc5)CC4)cc3Cl)c2nc1OC [Compound 80, 1-N′-[5-Chloro-6-[(6,7-dimethoxy-1,5-naphthyridin-4-yl)oxy]pyridin-3-yl]-1-N-(4-fluorophenyl)cyclopropane-1,1-dicarboxamide] | 10 to 100 nM | 100 to 300 nM | 10 to 100 nM | 10 to 100 nM |
| COc1cc2nccc(Oc3ccc(NC(=O)C4(C(=O)Nc5ccc(F)cc5)CC4)cn3)c2nc1OC [Compound 81, 1-N′-[6-[(6,7-Dimethoxy-1,5-naphthyridin-4-yl)oxy]pyridin-3-yl]-1-N-(4-fluorophenyl)cyclopropane-1,1-dicarboxamide] | 10 to 100 nM | 100 to 300 nM | 10 to 100 nM | 100 to 300 nM |
| COc1cc2nccc(Oc3ccc(NC(=O)C4(C(=O)Nc5ccc(F)cc5)CC4)cn3)c2cc1C(N)=O [Compound 16, 1-N′-[6-(6-Carbamoyl-7-methoxyquinolin-4-yl)oxypyridin-3-yl]-1-N-(4-fluorophenyl)-cyclopropane-1,1-dicarboxamide] | ≤ 10 nM | 10 to 100 nM | ≤ 10 nM | 100 to 300 nM |

Further lines, results first:

| IC50 [1] | IC50 [2] | IC50 [3] | IC50 [4] | SMILES |
| --- | --- | --- | --- | --- |
| ≤ 10 nM | 10 to 100 nM | ≤ 10 nM | 100 to 300 nM | COC(=O)c1cc2c(Oc3ccc(NC(=O)C4(C(=O)Nc5ccc(F)cc5)CC4)cn3)ccnc2cc1OC [Compound 10, Methyl 4-[5-[[1-[(4-fluorophenyl)carbamoyl]cyclopropanecarbonyl]-amino]pyridin-2-yl]oxy-7-methoxyquinoline-6-carboxylate] |
| ≤ 10 nM | 10 to 100 nM | ≤ 10 nM | 10 to 100 nM | COc1cc2nccc(Oc3ncc(NC(=O)C4(C(=O)Nc5ccc(F)cc5)CC4)cc3F)c2nc1OC [Compound 82, 1-N′-[6-[(6,7-Dimethoxy-1,5-naphthyridin-4-yl)oxy]-5-fluoropyridin-3-yl]-1-N-(4-fluorophenyl)cyclopropane-1,1-dicarboxamide] |
| ≤ 10 nM | ≤ 10 nM | ≤ 10 nM | 10 to 100 nM | COc1cc2nccc(Oc3ncc(NC(=O)C4(C(=O)Nc5ccc(F)cc5)CC4)cc3Cl)c2cc1C(N)=O [Compound 18, 1-N′-[6-(6-Carbamoyl-7-methoxyquinolin-4-yl)oxy-5-chloropyridin-3-yl]-1-N-(4-fluorophenyl)cyclopropane-1,1-dicarboxamide] |
| ≤ 10 nM | 10 to 100 nM | ≤ 10 nM | 10 to 100 nM | COc1cc2nccc(Oc3ccc(NC(=O)C4(C(=O)Nc5ccc(F)cc5)CC4)cn3)c2cc1-c1cn[nH]c1 [Compound 60, 1-N-(4-Fluorophenyl)-1-N′-[6-[7-methoxy-6-(1H-pyrazol-4-yl)quinolin-4-yl]oxypyridin-3-yl]cyclopropane-1,1-dicarboxamide] |
